The results in this text go back to US20240300975A1, “DIMETHYL-SUBSTITUTED THIAZOLOLACTAM COMPOUND AND USE THEREOF” (D3 Bio (Wuxi) Co., Ltd., priority 2021, published 2024).

In one data set the test system is human plasma albumin. Description: Plasma protein binding (PPB), human plasma. Format: in vitro ADME. The note with it: ultracentrifugation, 37° C., 4 h. As to the method: (§1) The binding degree of the assay compound to human/mouse/rat/canine/monkey plasma albumin was studied.
(§2) • 1) Matrix preparation: on the day of the assay, plasma was thawed in cold water and centrifuged at 3220 rpm for 5 min to remove all clots. The pH of the resulting plasma was measured and adjusted to 7.4±0.1 using 1% phosphoric acid or 1N sodium hydroxide as needed. • 2) Dilution procedure for the assay compound: the assay compound was dissolved in dimethyl sulfoxide (DMSO) to prepare stock solutions with concentrations of 10 mM and 2 mM, respectively. A 40 μM working solution was prepared by diluting 2 μL of stock solution (2 mM) with 98 μL of DMSO. A 400 μM working solution of the control compound was prepared by diluting 10 μL of stock solution with 240 μL of DMSO. The working solution of the compound (5 μL) was mixed well with a blank matrix (995 μL) at a ratio of 1:200 to prepare a loading matrix.
(§3) • a) An equal volume of 30 μL of loading matrix (n=2) was transferred to a sample collection plate to prepare a time 0 (TO) sample for residue determination. The sample was immediately matched with the corresponding blank buffer to a final volume of 60 μL, and the volume ratio of plasma to buffer in each well was 1:1. […] The mixture was centrifuged at 4000 rpm for 20 min and 100 μL of supernatant from each sample was analyzed by LC-MS/MS.

A short description of data set [1]: In vivo PK study in cynomolgus monkeys. As to conditions: male cynomolgus monkeys. The method, then: Male cynomolgus monkeys were used as assay animals. After a single administration, the plasma concentration of the compound was measured and the pharmacokinetic behavior was evaluated.
Five healthy adult male cynomolgus monkeys were selected, wherein 2 animals were in an intravenous injection group, and 3 animals were in an oral group. The vehicle in the intravenous injection group was 5% DMSO+95% (20% HP-β-CD). The compound to be assayed was mixed with an appropriate amount of vehicle for intravenous injection, and dissolved with stirring to prepare a clear solution of 0.4 mg/mL. The clear solution was filtered by a microporous membrane, and then ready for use. The vehicle in the oral group was 5% DMSO+95% (20% HP-β-CD). The compound to be assayed was mixed with the vehicle, and dissolved with stirring to prepare a solution of 0.3 mg/mL. Cynomolgus monkeys were administered 1 mg/kg intravenously or 3 mg/kg orally, and then whole blood was collected for a certain period. Plasma was prepared. The drug concentration was analyzed by LC-MS/MS method, and the pharmacokinetic parameters were calculated by Phoenix WinNonlin software (Pharsight, USA).

The subject of the next data set is rat plasma albumin. Description: Plasma protein binding (PPB), rat plasma. Format: in vitro ADME. As to conditions: ultracentrifugation, 37° C., 4 h. As to the method:
as §1, §2, §3

In a further data set the target is hERG potassium channel (Homo sapiens (Human), UniProt Q12809). The experiment in a line: hERG assay (automated patch-clamp, CHO-hERG cells). Format: cell-based. As to conditions: Qpatch, highest assayed concentration 40 μM. The method, then: A fully automated patch-clamp method was used to assay the effect of the compound on hERG potassium channel (human Ether-a-go-go Related Gene potassium channel) current.
CHO-hERG cells were cultured in a 175 cm^2 culture flask. When cells grew to a density of 60˜80%, the culture medium was removed. Cells were washed once with 7 mL of PBS (Phosphate Buffered Saline), and then 3 mL of Detachin was added for digestion. After the digestion was completed, 7 mL of culture medium was added for neutralization, and then the mixture was centrifuged. The supernatant was aspirated, and then 5 mL of culture medium was added to resuspend the cells and ensure that the cell density was 2˜5×10^6/mL.
Extracellular solution formulation (mM): 140 NaCl, 5 KCl, 1 CaCl2), 1.25 MgCl2, 10 HEPES and 10 Glucose; the formulation was adjusted to pH of 7.4 with NaOH. […]
The single-cell high-impedance sealing and whole-cell pattern formation processes were all automatically performed by a Qpatch instrument. […] This voltage stimulation was applied every 15 seconds, and recorded for 2 minutes. The extracellular solution was then given, and recorded for 5 minutes. […]
Assay data were analyzed by GraphPad Prism 5.0 software. […]
• The inhibitory effect of Cisapride with multiple concentrations on the hERG channel was measured as a positive control.

The structures appear in SMILES notation.

Chain of hERG potassium channel (Q12809 whole entry): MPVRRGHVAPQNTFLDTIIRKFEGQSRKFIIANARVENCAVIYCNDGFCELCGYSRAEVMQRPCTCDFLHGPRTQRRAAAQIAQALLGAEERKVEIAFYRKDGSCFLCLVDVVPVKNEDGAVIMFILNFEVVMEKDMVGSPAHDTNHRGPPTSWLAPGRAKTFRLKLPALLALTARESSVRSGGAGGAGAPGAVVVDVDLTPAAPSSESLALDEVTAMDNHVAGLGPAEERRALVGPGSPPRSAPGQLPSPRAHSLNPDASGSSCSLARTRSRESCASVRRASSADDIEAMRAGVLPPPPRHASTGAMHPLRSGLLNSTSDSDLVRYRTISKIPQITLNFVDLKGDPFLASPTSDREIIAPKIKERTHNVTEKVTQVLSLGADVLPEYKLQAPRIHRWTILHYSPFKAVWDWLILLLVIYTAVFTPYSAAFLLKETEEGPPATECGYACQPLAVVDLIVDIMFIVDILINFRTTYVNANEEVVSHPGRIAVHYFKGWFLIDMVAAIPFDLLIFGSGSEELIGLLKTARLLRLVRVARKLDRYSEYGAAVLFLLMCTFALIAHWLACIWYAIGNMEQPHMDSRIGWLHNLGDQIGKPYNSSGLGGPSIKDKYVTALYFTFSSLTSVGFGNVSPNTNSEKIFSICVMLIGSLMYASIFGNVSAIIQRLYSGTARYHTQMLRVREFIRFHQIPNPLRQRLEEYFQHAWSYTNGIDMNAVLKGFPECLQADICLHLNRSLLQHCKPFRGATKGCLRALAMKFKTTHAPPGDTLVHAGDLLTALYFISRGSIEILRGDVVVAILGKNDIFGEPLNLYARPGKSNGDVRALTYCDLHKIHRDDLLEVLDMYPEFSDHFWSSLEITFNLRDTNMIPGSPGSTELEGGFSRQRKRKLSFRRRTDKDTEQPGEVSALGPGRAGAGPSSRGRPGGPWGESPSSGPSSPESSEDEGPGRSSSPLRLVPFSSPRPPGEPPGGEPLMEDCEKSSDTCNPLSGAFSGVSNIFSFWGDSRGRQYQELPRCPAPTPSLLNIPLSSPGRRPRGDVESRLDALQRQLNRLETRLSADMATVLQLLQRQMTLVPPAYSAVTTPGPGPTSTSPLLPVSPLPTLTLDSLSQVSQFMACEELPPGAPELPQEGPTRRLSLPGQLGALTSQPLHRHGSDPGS

With `Cc1cccc(CN2C(=O)c3nc(-c4nc(Nc5ccnn5C)ncc4C)sc3C2(C)C)n1` [WX001], the “Plasma protein binding rate (unbound %)” value is reported as 6.1% with human plasma albumin and 3.8% in the data set with rat plasma albumin. For the same molecule, the clearance in data set [1] (cynomolgus monkey, plasma, iv, 1 mg/kg intravenously) is 7.9 mL/min/kg. For the same molecule, the Vd in data set [1] (cynomolgus monkey, plasma, iv, 1 mg/kg intravenously, read-out: Vdss) came out at 1.19 L/kg. In addition, the bioavailability in data set [1] (cynomolgus monkey, plasma, oral, 1 mg/kg intravenously / 3 mg/kg orally, read-out: F % (oral bioavailability)) turned out to be 41%. In addition, in data set [1] (cynomolgus monkey, plasma, single administration), the half-life was 2 h. The Cmax in data set [1] (cynomolgus monkey, po, 3 mg/kg orally, plasma) worked out at 1250 nM. In data set [1] (3 mg/kg orally), the “Oral DNAUC (AUCPO/Dose)” value is 1995.93 nM · h/mpk. This molecule also came in with an IC50 against hERG potassium channel greater than 40 µM.

Usually clearance stands for the volume of plasma or blood freed of the substance per unit of time. The low end stands for a low capacity for elimination, the high end for a high capacity for elimination. Broadly, the bioavailability is dose-corrected exposure relative to a reference, in per cent. As usually defined, the half-life is how long it takes for the measured level to halve. A higher half-life goes with slow loss. A word on the Cmax: it is the peak of the concentration-time curve. As usually defined, the IC50 is the concentration needed to halve the response being measured. Higher therefore signals a need for much substance.
